Tests used:
PC-12 = assay: Cytotoxicity against rat PC12 cells assessed as reduction in cell viability at 0.625 to 20 uM incubated for 72 hrs by MTT assay; format: cell-based; details: pc-12, 72 h
[1] = Toxicity in BALB/c mouse xenografted with human A549 cells assessed as reduction in body weight at 20 to 40 mg/kg, ig administered for 30 days; format: organism-based; details: in vivo, po, 720 h
[2] = target: Aurora kinase C (Homo sapiens) (UniProt Q9UQB9); assay: Inhibition of human Aurora C at 100 nM using [H-LRRASLG] as substrate by [gamma-33P]-ATP assay
[3] = target: Calcium/calmodulin-dependent protein kinase type IV (Homo sapiens) (UniProt Q16566); assay: Inhibition of human CAMK4 at 100 nM using KKLNRTLSFAEPG as substrate by [gamma-33P]-ATP assay
[4] = target: Cyclin-dependent kinase 1/cyclin B1 (Homo sapiens) (UniProt P06493+P14635); assay: Inhibition of human CDK1/cyclinB at 100 nM using Histone H1 as substrate by [gamma-33P]-ATP assay; format: protein-complex assay
Chain of Cyclin-dependent kinase 1/cyclin B1 (Homo sapiens) (P06493 whole entry, looked up): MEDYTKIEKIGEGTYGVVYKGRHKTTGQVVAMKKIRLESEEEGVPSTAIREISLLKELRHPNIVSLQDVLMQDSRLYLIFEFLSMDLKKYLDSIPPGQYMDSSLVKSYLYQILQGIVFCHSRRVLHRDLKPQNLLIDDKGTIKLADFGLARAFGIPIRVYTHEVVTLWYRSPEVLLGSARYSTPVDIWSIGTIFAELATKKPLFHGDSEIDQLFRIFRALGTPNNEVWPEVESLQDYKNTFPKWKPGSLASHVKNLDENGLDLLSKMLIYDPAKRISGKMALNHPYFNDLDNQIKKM
Chain of Cyclin-dependent kinase 1/cyclin B1 (Homo sapiens) (P14635 whole entry, looked up): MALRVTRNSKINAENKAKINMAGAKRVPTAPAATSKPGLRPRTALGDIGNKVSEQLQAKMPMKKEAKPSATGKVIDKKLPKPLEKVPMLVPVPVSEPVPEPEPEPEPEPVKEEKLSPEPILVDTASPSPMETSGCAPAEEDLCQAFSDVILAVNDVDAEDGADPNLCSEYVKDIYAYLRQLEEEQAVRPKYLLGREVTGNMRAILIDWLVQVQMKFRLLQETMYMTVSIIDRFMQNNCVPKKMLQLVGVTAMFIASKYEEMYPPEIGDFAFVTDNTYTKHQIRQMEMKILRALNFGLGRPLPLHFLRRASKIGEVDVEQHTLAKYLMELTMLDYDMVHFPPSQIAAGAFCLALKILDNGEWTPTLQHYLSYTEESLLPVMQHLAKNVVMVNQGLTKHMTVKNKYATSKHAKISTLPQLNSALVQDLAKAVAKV

[5] = target: Ephrin type-A receptor 1 (Homo sapiens) (UniProt P21709); assay: Inhibition of human EPHA1 at 100 nM using poly[Glu:Tyr] (4:1) as substrate by [gamma-33P]-ATP assay
[6] = target: Ephrin type-A receptor 3 (Homo sapiens) (UniProt P29320); assay: Inhibition of human EPHA3 at 100 nM using poly[Glu:Tyr] (4:1) as substrate by [gamma-33P]-ATP assay
[7] = target: Serine/threonine-protein kinase/endoribonuclease IRE2 (Homo sapiens) (UniProt Q76MJ5); assay: Inhibition of human ERN2 at 100 nM using MBP as substrate by [gamma-33P]-ATP assay
Chain of Serine/threonine-protein kinase/endoribonuclease IRE2 (Homo sapiens) (Q76MJ5 35-926 limits assumed): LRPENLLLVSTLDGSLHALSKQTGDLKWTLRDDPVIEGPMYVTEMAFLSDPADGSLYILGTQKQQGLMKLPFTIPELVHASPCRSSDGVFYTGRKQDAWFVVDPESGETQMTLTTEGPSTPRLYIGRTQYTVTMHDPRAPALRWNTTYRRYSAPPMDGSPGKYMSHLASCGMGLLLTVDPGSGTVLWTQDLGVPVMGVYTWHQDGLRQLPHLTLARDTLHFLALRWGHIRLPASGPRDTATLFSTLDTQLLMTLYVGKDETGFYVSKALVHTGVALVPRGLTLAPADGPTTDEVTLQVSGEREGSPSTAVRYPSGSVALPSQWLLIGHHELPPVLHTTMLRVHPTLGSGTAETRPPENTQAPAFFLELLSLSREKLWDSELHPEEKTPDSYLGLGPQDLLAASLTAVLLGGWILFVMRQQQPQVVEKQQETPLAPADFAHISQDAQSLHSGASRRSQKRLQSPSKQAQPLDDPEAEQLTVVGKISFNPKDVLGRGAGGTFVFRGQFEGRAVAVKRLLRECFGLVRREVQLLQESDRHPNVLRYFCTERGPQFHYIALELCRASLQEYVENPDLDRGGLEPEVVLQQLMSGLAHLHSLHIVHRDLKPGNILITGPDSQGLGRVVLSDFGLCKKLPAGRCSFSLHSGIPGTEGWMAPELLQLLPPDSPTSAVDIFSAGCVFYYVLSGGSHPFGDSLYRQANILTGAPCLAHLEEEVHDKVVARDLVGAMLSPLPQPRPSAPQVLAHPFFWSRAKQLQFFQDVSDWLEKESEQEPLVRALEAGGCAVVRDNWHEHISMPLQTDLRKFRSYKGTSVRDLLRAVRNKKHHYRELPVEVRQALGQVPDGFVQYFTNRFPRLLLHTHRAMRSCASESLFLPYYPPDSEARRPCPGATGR

[8] = target: Insulin-like growth factor 1 receptor (Homo sapiens) (UniProt P08069); assay: Inhibition of human IGF1R at 100 nM using KKKSPGEYVNIEFG as substrate by [gamma-33P]-ATP assay
[9] = target: Inhibitor of nuclear factor kappa-B kinase subunit alpha (Homo sapiens) (UniProt O15111); assay: Inhibition of human IKKalpha at 100 nM using KKKKERLLDDRHDSGLDSMKDEE as substrate by [gamma-33P]-ATP assay
[10] = target: Mitogen-activated protein kinase 10 (Homo sapiens) (UniProt P53779); assay: Inhibition of human JNK3 at 100 nM using ATF2 as substrate by [gamma-33P]-ATP assay
[11] = target: Vascular endothelial growth factor receptor 2 (Homo sapiens) (UniProt P35968); assay: Inhibition of human KDR at 100 nM using poly[Glu:Tyr] (4:1) as substrate by [gamma-33P]-ATP assay
[12] = target: Serine/threonine-protein kinase MAK (Homo sapiens) (UniProt P20794); assay: Inhibition of human MAK at 100 nM using MBP as substrate by [gamma-33P]-ATP assay
[13] = target: Ribosomal protein S6 kinase alpha-5 (Homo sapiens) (UniProt O75582); assay: Inhibition of human MSK1 at 100 nM using GRPRTSSFAEG as substrate by [gamma-33P]-ATP assay
[14] = target: Myosin light chain kinase (Homo sapiens) (UniProt Q32MK0); assay: Inhibition of human MYLK3 at 100 nM using KKRPQRRYSNVF as substrate by [gamma-33P]-ATP assay
[15] = target: Serine/threonine-protein kinase Nek4 (Homo sapiens) (UniProt P51957); assay: Inhibition of human NEK4 at 100 nM using MBP as substrate by [gamma-33P]-ATP assay
[16] = target: Mitogen-activated protein kinase 11 (Homo sapiens) (UniProt Q15759); assay: Inhibition of human p38beta at 100 nM using MBP as substrate by [gamma-33P]-ATP assay
[17] = target: Mitogen-activated protein kinase 12 (Homo sapiens) (UniProt P53778); assay: Inhibition of human p38gamma at 100 nM using MBP as substrate by [gamma-33P]-ATP assay
[18] = target: Serine/threonine-protein kinase pim-3 (Homo sapiens) (UniProt Q86V86); assay: Inhibition of human PIM3 at 100 nM using RSRHSSYPAGT as substrate by [gamma-33P]-ATP assay
[19] = target: Protein kinase C iota type (Homo sapiens) (UniProt P41743); assay: Inhibition of human PKCiota at 100 nM using ERMRPRKRQGSVRRRV as substrate by [gamma-33P]-ATP assay
Chain of Protein kinase C iota type (Homo sapiens) (P41743 whole entry): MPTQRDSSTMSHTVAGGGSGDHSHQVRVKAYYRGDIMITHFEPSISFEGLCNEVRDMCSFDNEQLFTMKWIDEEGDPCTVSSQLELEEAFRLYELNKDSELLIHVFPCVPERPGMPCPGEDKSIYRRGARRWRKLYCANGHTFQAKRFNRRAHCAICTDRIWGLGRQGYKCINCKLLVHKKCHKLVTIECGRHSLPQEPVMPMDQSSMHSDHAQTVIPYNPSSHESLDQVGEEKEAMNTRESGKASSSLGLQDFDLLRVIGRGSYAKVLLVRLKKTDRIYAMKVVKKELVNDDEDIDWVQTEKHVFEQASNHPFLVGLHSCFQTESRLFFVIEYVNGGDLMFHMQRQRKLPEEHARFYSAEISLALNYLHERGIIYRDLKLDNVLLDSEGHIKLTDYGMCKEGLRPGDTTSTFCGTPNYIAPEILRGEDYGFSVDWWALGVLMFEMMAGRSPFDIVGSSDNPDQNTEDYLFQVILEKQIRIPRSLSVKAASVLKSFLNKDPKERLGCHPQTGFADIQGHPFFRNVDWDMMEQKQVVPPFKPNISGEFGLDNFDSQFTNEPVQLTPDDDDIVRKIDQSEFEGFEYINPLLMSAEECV

[20] = target: Serine/threonine-protein kinase D1 (Homo sapiens) (UniProt Q15139); assay: Inhibition of human PKCmu at 100 nM using KKLNRTLSVA as substrate by [gamma-33P]-ATP assay
[21] = target: Serine/threonine-protein kinase D3 (Homo sapiens) (UniProt O94806); assay: Inhibition of human PKCnu at 100 nM using KKLNRTLSVA as substrate by [gamma-33P]-ATP assay
[22] = target: cGMP-dependent protein kinase 2 (Homo sapiens) (UniProt Q13237); assay: Inhibition of human PKG2 at 100 nM using LRRASLG as substrate by [gamma-33P]-ATP assay
[23] = target: Proto-oncogene tyrosine-protein kinase ROS (Homo sapiens) (UniProt P08922); assay: Inhibition of human ROS at 100 nM using KKKSPGEYVNIEFG as substrate by [gamma-33P]-ATP assay
[24] = target: SNF-related serine/threonine-protein kinase (Homo sapiens) (UniProt Q9NRH2); assay: Inhibition of human SNRK at 100 nM using MBP as substrate by [gamma-33P]-ATP assay
[25] = target: Testis-specific serine/threonine-protein kinase 1 (Homo sapiens) (UniProt Q9BXA7); assay: Inhibition of human STK22D at 100 nM using KKKVSRSGLYRSPSMPENLNRPR as substrate by [gamma-33P]-ATP assay
[26] = target: Serine/threonine-protein kinase 25 (Homo sapiens) (UniProt O00506); assay: Inhibition of human STK25 at 100 nM using MBP as substrate by [gamma-33P]-ATP assay
Chain of Serine/threonine-protein kinase 25 (Homo sapiens) (O00506 whole entry, looked up): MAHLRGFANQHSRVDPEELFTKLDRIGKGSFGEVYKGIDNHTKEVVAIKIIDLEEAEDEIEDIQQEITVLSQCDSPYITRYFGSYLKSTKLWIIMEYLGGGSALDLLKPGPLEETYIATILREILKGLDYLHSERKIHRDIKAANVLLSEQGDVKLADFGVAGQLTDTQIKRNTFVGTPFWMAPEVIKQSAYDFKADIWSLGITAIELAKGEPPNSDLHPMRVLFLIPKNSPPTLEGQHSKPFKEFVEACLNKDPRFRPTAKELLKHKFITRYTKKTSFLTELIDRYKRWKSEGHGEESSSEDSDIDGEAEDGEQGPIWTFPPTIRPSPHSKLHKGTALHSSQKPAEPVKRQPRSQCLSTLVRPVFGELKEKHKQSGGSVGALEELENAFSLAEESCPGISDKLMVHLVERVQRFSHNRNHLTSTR

[27] = target: Angiopoietin-1 receptor (Homo sapiens) (UniProt Q02763); assay: Inhibition of human TIE2 at 100 nM using poly[Glu:Tyr] (4:1) as substrate by [gamma-33P]-ATP assay
Chain of Angiopoietin-1 receptor (Homo sapiens) (Q02763 whole entry): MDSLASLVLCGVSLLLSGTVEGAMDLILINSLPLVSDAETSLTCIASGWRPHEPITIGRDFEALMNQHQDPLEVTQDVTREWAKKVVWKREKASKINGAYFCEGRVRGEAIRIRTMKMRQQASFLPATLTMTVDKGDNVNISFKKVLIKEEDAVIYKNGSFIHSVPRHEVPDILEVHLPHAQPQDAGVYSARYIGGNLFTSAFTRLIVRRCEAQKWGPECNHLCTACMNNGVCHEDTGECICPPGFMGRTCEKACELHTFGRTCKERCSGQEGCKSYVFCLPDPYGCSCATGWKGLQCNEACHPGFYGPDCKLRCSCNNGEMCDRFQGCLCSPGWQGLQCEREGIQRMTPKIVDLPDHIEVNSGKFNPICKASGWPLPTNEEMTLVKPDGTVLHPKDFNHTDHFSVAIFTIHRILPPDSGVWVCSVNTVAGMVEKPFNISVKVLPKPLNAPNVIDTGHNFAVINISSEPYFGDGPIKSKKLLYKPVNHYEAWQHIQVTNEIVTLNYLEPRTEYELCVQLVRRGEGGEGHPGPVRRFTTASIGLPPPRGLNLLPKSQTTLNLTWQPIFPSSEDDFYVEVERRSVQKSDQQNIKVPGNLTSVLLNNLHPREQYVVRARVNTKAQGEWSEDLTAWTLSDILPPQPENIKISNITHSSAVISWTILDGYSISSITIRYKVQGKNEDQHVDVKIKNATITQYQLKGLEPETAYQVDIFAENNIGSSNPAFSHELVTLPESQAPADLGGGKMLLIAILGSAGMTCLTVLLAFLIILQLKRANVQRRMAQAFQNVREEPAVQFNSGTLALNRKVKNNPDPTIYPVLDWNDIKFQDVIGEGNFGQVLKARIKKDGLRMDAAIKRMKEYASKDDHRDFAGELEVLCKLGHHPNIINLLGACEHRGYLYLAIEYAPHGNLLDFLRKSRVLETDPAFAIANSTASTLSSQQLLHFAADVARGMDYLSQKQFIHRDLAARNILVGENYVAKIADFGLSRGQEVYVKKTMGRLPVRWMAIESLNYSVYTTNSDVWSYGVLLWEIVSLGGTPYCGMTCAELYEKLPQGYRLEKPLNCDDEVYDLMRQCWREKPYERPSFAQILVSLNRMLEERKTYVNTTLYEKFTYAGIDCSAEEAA

[28] = target: BDNF/NT-3 growth factors receptor (Homo sapiens) (UniProt Q16620); assay: Inhibition of human TRKB at 100 nM using poly[Glu:Tyr] (4:1) as substrate by [gamma-33P]-ATP assay
Homo sapiens = species: Homo sapiens; assay: Inhibition of human AMPK (A2/B1/G1) at 100 nM using HMRSAMSGLHLVKRR as substrate by [gamma-33P]-ATP assay
[29] = target: Eukaryotic translation initiation factor 2-alpha kinase 1 (Homo sapiens) (UniProt Q9BQI3); assay: Inhibition of human EIF2AK1 at 100 nM using MBP as substrate by [gamma-33P]-ATP assay
Chain of Eukaryotic translation initiation factor 2-alpha kinase 1 (Homo sapiens) (Q9BQI3 whole entry): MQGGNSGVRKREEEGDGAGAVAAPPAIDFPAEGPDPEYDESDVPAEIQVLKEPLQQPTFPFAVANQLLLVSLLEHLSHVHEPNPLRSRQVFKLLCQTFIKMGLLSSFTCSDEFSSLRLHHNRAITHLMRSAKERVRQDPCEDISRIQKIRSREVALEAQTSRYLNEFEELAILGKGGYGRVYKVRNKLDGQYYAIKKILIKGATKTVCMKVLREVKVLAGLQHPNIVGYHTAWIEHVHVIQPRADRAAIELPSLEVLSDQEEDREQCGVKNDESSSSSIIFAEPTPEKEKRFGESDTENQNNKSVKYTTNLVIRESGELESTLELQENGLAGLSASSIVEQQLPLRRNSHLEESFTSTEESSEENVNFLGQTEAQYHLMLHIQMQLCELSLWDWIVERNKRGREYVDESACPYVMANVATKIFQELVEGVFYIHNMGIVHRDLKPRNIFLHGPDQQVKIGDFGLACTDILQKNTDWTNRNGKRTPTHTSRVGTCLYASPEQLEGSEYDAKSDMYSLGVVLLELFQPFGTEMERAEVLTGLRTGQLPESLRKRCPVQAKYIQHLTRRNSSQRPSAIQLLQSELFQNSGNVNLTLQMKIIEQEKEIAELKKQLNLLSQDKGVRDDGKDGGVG

In the case of COc1ccc(N2C(=O)COc3ccc(-c4cnc(OC)c(NS(=O)(=O)c5ccc(F)cc5)c4)cc32)cc1, the Activity (PC-12) is reported as “Non-Toxic”, the Activity [1] is reported as “Non-Toxic” and the inhibition [2] is reported as 10.1%. For the same compound, the inhibition [3] was 12%, the inhibition [4] was -2.84% and the inhibition [5] was 4.93%. It also gave an inhibition [6] of 20.6%, an inhibition [7] of -2.98% and an inhibition [8] of -4.3%. The inhibition [9] was -2.43%, the inhibition [10] was -6.25% and the inhibition [11] was -3.23%. The inhibition [12] was 16.2%, the inhibition [13] was 8.07% and the inhibition [14] was 3.77%. It also gave an inhibition [15] of -6.56%, an inhibition [16] of 9.33% and an inhibition [17] of -3.86%. The inhibition [18] was -9.8%, the inhibition [19] was -2.31% and the inhibition [20] was 25.9%. It also gave an inhibition [21] of 2.41%, an inhibition [22] of 1.95% and an inhibition [23] of 15.3%. The inhibition [24] was 17.7%, the inhibition [25] was -6.47% and the inhibition [26] was 0.52%. The inhibition [27] was 8.06%, the inhibition [28] was -0.11% and the inhibition (Homo sapiens) was -3.88%. It also gave an inhibition [29] of 3.42%.
